Assays:
[1] = tested on: bleomycin-induced dermal fibrosis; test: murine model of bleomycin-induced dermal fibrosis (histopathology scores); format: in vivo, female C3H/HeJ inbred mice (Mus musculus)
Source text: The objective of this study was to assess the effects of the test article Compound A, an alpha helix mimetic β-catenin inhibitor compound, in a murine model of bleomycin-induced dermal fibrosis. Compound A is 4-(((6S,9S,9aS)-1-(benzylcarbamoyl)-2,9-dimethyl-4,7-dioxo-8-(quinolin-8-ylmethyl)octahydro-1H-pyrazino[2,1-c][1,2,4]triazin-6-yl)methyl)phenyl dihydrogen phosphate. Negative and positive control articles were phosphate buffered saline (PBS) and dexamethasone (DEX, a known treatment for scleroderma), respectively.
The high-dose (0.5 mg/mL) dosing solution of test article was prepared by mixing 4 mL of test article (stock solution at […]) with 36 mL of PBS. The low-dose (0.05 mg/mL) dosing solution was prepared by mixing 4 mL of the high-dose test article dosing solution (0.5 mg/mL) with 36 mL of PBS. The DEX dosing solution (1 mg/mL) was prepared by mixing 1 mL of the DEX stock solution (3 mg/mL) with 2 mL of PBS. The test and positive control articles were prepared once weekly, aliquoted and stored at 4° C. protected from light.
Forty-five female C3H/HeJ inbred mice (Mus musculus) at ages of approximately 6 weeks were obtained from Jackson Laboratory (Bar Harbor, Me.) for use in the study. Mice were selected for the study since these animals are an accepted species frequently used in pre-clinical evaluation of drugs intended for human use.
(§1) Dermal fibrosis was induced locally by six weeks of once-daily subcutaneous injections of bleomycin (0.1 U in 0.1 mL) into a defined area on the back of each mouse. Test and control articles were administered by twice-daily intraperitoneal injection starting from Day 14 (i.e., two weeks after the initiation of bleomycin injection). For mice of Groups 1-4, test/control article were administered (BID, IP) for four weeks, starting from Day 14 (i.e., two weeks after the initial bleomycin injection) administration was performed twice daily. Group 1 received negative control article (PBS) at 200 μL/mouse. Groups 2 and 3 received low- and high-dose test article dosing solutions (0.05 and 0.5 mg/mL Compound A) at doses of 0.5 and 5 mg/kg, respectively. Group 4 received DEX dosing solution (1 mg/mL) at doses of 1 mg/kg. […]
Mice were euthanized on Day 42, i.e., following six weeks of bleomycin injection and four weeks of test/control article treatment. A full gross necropsy was performed on each mouse, and any macroscopic abnormality was recorded. […]
Formalin-fixed skin and lung tissues from each mouse were processed for histopathology. […] Slides were evaluated for dermal fibrosis and dermal inflammation. […] Dermal fibrosis and inflammation were scored using the industry standard 5-point scoring system as follows: 0=no significant changes; 1=trace to minimal severity; 2=mild severity; 3=moderate severity; 4=marked severity. […]

[2] = body weight in bleomycin-injected mice; format: in vivo, female C3H/HeJ inbred mice (Mus musculus); conditions: Group 4: bleomycin plus DEX 1 mg/kg IP BID; differences among groups at sacrifice not significant (P>0.05)
Experimental: as §1, with “mg/kg. For animals of Groups 2-4, doses were administered at dose volumes of 10 mL/kg, and dose volumes for individual animals were recalculated once weekly based on the most recent body weights. Animals were administered bleomycin and test and control articles in two cohorts, with dosing staggered by one day. Cohort A was composed of the first five animals in each group [x01-x05, where x denoted the study group number (1, 2, 3, or 4)]. Cohort B was composed of the remaining animals (x06-x10).” for “mg/kg.”

SMILES | dermal sclerosis scores vs vehicle-treated mice (FIG. 1) ([1]; Compound A at either dose (0.5 and 5 mg/kg IP BID Days 14-41), Day 42, P<0.01) | dermal fibrosis (summary) ([1]; bleomycin-injected mice, treatment IP BID Days 14-41) | dermal inflammation scores ([1]; bleomycin-injected mice, Compound A 0.5 and 5 mg/kg IP BID Days 14-41, Day 42 histopathology, 0-4 score) | amount of dermal fibrosis (qualitative histopathology) ([1]; both test article-treated groups (0.5 and 5 mg/kg IP BID), Day 42) | decrease in mean body weight [2]
C[C@H]1[C@H]2N(C(=O)CN(C)N2C(=O)NCc2ccccc2)[C@@H](Cc2ccc(OP(=O)(O)O)cc2)C(=O)N1Cc1cccc2cccnc12 [Compound A, 4-(((6S,9S,9aS)-1-(benzylcarbamoyl)-2,9-dimethyl-4,7-dioxo-8-(quinolin-8-ylmethyl)octahydro-1H-pyrazino[2,1-c][1,2,4]triazin-6-yl)methyl)phenyl dihydrogen phosphate] | significant decrease | ameliorated | did not significantly affect | mildly reduce | 
C[C@@H]1C[C@H]2[C@@H]3CCC4=CC(=O)C=C[C@]4(C)[C@@]3(F)[C@@H](O)C[C@]2(C)[C@@]1(O)C(=O)CO [DEX, dexamethasone] |  |  |  |  | largest decrease
